Laboratory results reported in patent US9452986B2, “6-heteroaryloxy- or 6-aryloxy-quinoline-2-carboxamides and method of use” (AbbVie Inc., priority 2014, dated 2016).

Molecular target: recombinant human Nav1.7 (Homo sapiens (Human), UniProt Q15858)
Assay: FRET-based membrane potential assay, recombinant human sodium channel Nav1.7
Type: cell-based
Conditions: HEK293 cells stably expressing recombinant human Nav1.7; veratridine + scorpion venom depolarization; read-out: FRET-Membrane Potential Nav1.7 IC50
Method in brief: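 Channel activation used veratridine at its EC80, set by a dilution curve each experiment, together with Leiurus scorpion venom, added 3 min after compound. Membrane-potential ratio signals from FLIPR Tetra in HEPES-buffered HBSS were fitted to a four-parameter Hill equation for percent inhibition and IC50.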

recombinant human Nav1.7, sequence (Q15858 whole entry): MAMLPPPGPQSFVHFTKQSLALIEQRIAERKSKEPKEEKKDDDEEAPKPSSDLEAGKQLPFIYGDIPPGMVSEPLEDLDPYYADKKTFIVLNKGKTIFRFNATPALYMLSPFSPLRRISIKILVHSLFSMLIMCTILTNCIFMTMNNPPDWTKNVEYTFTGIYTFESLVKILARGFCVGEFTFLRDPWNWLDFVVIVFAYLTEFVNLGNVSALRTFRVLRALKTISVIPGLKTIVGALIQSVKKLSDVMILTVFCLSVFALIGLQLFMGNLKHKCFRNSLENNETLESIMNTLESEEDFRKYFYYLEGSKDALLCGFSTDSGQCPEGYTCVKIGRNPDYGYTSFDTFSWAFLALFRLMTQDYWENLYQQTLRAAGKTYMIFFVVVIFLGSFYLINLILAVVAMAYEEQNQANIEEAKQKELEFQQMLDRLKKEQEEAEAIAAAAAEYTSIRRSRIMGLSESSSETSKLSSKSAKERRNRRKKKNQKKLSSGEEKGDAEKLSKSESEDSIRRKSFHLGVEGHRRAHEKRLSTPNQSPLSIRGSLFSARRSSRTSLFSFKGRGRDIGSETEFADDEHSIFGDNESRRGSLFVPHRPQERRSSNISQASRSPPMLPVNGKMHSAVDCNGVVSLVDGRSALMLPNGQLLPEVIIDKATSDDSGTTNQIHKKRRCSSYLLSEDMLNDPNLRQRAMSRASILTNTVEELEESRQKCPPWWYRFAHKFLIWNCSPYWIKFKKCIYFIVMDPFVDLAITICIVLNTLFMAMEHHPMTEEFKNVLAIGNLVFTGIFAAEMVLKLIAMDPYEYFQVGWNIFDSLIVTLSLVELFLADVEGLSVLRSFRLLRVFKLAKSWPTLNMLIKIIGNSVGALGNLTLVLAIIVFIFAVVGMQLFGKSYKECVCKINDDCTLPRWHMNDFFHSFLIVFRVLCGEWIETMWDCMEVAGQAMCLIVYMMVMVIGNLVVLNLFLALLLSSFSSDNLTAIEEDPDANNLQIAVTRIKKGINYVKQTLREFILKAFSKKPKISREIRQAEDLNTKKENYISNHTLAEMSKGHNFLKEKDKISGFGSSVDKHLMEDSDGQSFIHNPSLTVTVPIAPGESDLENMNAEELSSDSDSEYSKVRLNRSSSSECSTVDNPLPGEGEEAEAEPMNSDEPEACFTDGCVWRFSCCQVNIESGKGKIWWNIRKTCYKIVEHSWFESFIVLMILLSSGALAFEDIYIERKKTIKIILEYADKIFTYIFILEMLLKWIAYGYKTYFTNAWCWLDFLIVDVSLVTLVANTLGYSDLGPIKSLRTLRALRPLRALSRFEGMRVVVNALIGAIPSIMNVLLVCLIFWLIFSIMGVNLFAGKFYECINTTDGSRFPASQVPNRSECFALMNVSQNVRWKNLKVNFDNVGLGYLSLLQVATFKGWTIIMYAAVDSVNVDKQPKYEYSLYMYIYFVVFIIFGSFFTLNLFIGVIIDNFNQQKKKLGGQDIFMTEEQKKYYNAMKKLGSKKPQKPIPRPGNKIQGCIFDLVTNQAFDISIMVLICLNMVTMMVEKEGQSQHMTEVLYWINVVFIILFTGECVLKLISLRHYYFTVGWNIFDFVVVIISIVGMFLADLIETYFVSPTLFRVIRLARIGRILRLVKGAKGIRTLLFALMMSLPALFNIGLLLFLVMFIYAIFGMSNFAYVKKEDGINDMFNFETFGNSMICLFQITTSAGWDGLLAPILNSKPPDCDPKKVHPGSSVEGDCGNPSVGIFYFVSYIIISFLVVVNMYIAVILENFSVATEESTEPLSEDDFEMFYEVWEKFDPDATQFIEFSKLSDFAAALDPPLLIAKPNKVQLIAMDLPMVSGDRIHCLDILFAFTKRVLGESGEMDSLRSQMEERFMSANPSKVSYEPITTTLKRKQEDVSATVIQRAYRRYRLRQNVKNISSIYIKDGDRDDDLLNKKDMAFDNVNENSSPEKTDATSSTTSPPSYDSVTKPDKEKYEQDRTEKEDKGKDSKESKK

Structure (SMILES) | IC50 [µM]
CS(=O)(=O)NC1CN(C(=O)c2ccc3cc(Oc4ccc(C(F)(F)F)cn4)ccc3n2)C1 [Example 428, N-{1-[(6-{[5-(trifluoromethyl)pyridin-2-yl]oxy}quinolin-2-yl)carbonyl]azetidin-3-yl}methanesulfonamide] | 10.3
O=C1CC(NC(=O)c2ccc3cc(Oc4ccc(C(F)(F)F)cn4)ccc3n2)C1 [Example 432, N-(3-oxocyclobutyl)-6-{[5-(trifluoromethyl)pyridin-2-yl]oxy}quinoline-2-carboxamide] | 2.87
O=C(NC1CC(N2CCOCC2)C1)c1ccc2cc(Oc3ccc(C(F)(F)F)cn3)ccc2n1 (stereo not drawn) [Example 433, N-[3-(morpholin-4-yl)cyclobutyl]-6-{[5-(trifluoromethyl)pyridin-2-yl]oxy}quinoline-2-carboxamide] | 0.442
CC(C)(O)CNC(=O)c1ccc2cc(Oc3ccc(C(F)F)cn3)ccc2n1 [Example 434, 6-{[5-(difluoromethyl)pyridin-2-yl]oxy}-N-(2-hydroxy-2-methylpropyl)quinoline-2-carboxamide] | 5.58
O=C(NC1CCC(F)(F)CC1)c1ccc2cc(Oc3ccc(C(F)F)cn3)ccc2n1 [Example 437, N-(4,4-difluorocyclohexyl)-6-{[5-(difluoromethyl)pyridin-2-yl]oxy}quinoline-2-carboxamide] | 3.17
O=C(N[C@@H]1CCN(C(=O)c2ccc3cc(Oc4ccc(C(F)(F)F)cn4)ccc3n2)C1)C1CC1 [Example 439, N-{(3R)-1-[(6-{[5-(trifluoromethyl)pyridin-2-yl]oxy}quinolin-2-yl)carbonyl]pyrrolidin-3-yl}cyclopropanecarboxamide] | 5.86
O=C(c1ccc2cc(Oc3ccc(C(F)F)cn3)ccc2n1)N1CCN[C@@H](CO)C1 [Example 440, (6-{[5-(difluoromethyl)pyridin-2-yl]oxy}quinolin-2-yl) [(3R)-3-(hydroxymethyl)piperazin-1-yl]methanone] | 12.6
COCCNC(=O)CN(C)C(=O)c1ccc2cc(Oc3ccc(C(F)(F)F)cn3)ccc2n1 [Example 442, N-{2-[(2-methoxyethyl)amino]-2-oxoethyl}-N-methyl-6-{[5-(trifluoromethyl)pyridin-2-yl]oxy}quinoline-2-carboxamide] | 5.52
O=C(NCC(=O)N1CCOCC1)c1ccc2cc(Oc3ccc(C(F)(F)F)cn3)ccc2n1 [Example 443, N-[2-(morpholin-4-yl)-2-oxoethyl]-6-{[5-(trifluoromethyl)pyridin-2-yl]oxy}quinoline-2-carboxamide] | 0.703
O=C(NCCC(=O)N1CCOCC1)c1ccc2cc(Oc3ccc(C(F)(F)F)cn3)ccc2n1 [Example 444, N-[3-(morpholin-4-yl)-3-oxopropyl]-6-{[5-(trifluoromethyl)pyridin-2-yl]oxy}quinoline-2-carboxamide] | 1.4
O=C(NCCC(=O)N1CCCC1)c1ccc2cc(Oc3ccc(C(F)(F)F)cn3)ccc2n1 [Example 445, N-[3-oxo-3-(pyrrolidin-1-yl)propyl]-6-{[5-(trifluoromethyl)pyridin-2-yl]oxy}quinoline-2-carboxamide] | 0.268
O=C(NCC(=O)N1CCCCC1)c1ccc2cc(Oc3ccc(C(F)(F)F)cn3)ccc2n1 [Example 447, N-[2-oxo-2-(piperidin-1-yl)ethyl]-6-{[5-(trifluoromethyl)pyridin-2-yl]oxy}quinoline-2-carboxamide] | 0.69
CN1CC(NC(=O)c2ccc3cc(Oc4ccc(C(F)(F)F)cn4)ccc3n2)CC1=O (stereo not drawn) [Example 448, N-(1-methyl-5-oxopyrrolidin-3-yl)-6-{[5-(trifluoromethyl)pyridin-2-yl]oxy}quinoline-2-carboxamide] | 0.371
CN1CCN(C(=O)c2ccc3cc(Oc4ccc(C(F)(F)F)cn4)ccc3n2)CC1=O [Example 450, 1-methyl-4-[(6-{[5-(trifluoromethyl)pyridin-2-yl]oxy}quinolin-2-yl)carbonyl]piperazin-2-one] | 3.58
CN(C)C(=O)[C@@H]1CCCN1C(=O)c1ccc2cc(Oc3ccc(C(F)(F)F)cn3)ccc2n1 [Example 451, N,N-dimethyl-1-[(6-{[5-(trifluoromethyl)pyridin-2-yl]oxy}quinolin-2-yl)carbonyl]-L-prolinamide] | 5.23
CN(CC(=O)NC1CC1)C(=O)c1ccc2cc(Oc3ccc(C(F)(F)F)cn3)ccc2n1 [Example 452, N-[2-(cyclopropylamino)-2-oxoethyl]-N-methyl-6-{[5-(trifluoromethyl)pyridin-2-yl]oxy}quinoline-2-carboxamide] | 3.21
CCN(CC)C(=O)CCNC(=O)c1ccc2cc(Oc3ccc(C(F)(F)F)cn3)ccc2n1 [Example 453, N-[3-(diethylamino)-3-oxopropyl]-6-{[5-(trifluoromethyl)pyridin-2-yl]oxy}quinoline-2-carboxamide] | 0.405
CC(C)NC(=O)CN(C)C(=O)c1ccc2cc(Oc3ccc(C(F)(F)F)cn3)ccc2n1 [Example 454, N-[2-(isopropylamino)-2-oxoethyl]-N-methyl-6-{[5-(trifluoromethyl)pyridin-2-yl]oxy}quinoline-2-carboxamide] | 3.14
O=C(NCC(=O)N1CCCC1)c1ccc2cc(Oc3ccc(C(F)F)cn3)ccc2n1 [Example 456, 6-{[5-(difluoromethyl)pyridin-2-yl]oxy}-N-[2-oxo-2-(pyrrolidin-1-yl)ethyl]quinoline-2-carboxamide] | 0.886
COCCNC(=O)CN(C)C(=O)c1ccc2cc(Oc3ccc(C(F)F)cn3)ccc2n1 [Example 457, 6-{[5-(difluoromethyl)pyridin-2-yl]oxy}-N-{2-[(2-methoxyethyl)amino]-2-oxoethyl}-N-methylquinoline-2-carboxamide] | > 20
O=C(NCC(=O)N1CCOCC1)c1ccc2cc(Oc3ccc(C(F)F)cn3)ccc2n1 [Example 458, 6-{[5-(difluoromethyl)pyridin-2-yl]oxy}-N-[2-(morpholin-4-yl)-2-oxoethyl]quinoline-2-carboxamide] | 1.19
O=C(NCCC(=O)N1CCOCC1)c1ccc2cc(Oc3ccc(C(F)F)cn3)ccc2n1 [Example 459, 6-{[5-(difluoromethyl)pyridin-2-yl]oxy}-N-[3-(morpholin-4-yl)-3-oxopropyl]quinoline-2-carboxamide] | 8.69
O=C(NCCC(=O)N1CCCC1)c1ccc2cc(Oc3ccc(C(F)F)cn3)ccc2n1 [Example 460, 6-{[5-(difluoromethyl)pyridin-2-yl]oxy}-N-[3-oxo-3-(pyrrolidin-1-yl)propyl]quinoline-2-carboxamide] | 2.4
CCN(CC)C(=O)CNC(=O)c1ccc2cc(Oc3ccc(C(F)F)cn3)ccc2n1 [Example 461, N-[2-(diethylamino)-2-oxoethyl]-6-{[5-(difluoromethyl)pyridin-2-yl]oxy}quinoline-2-carboxamide] | 0.354
O=C(NCCC(=O)N1CCCCC1)c1ccc2cc(Oc3ccc(C(F)F)cn3)ccc2n1 [Example 463, 6-{[5-(difluoromethyl)pyridin-2-yl]oxy}-N-[3-oxo-3-(piperidin-1-yl)propyl]quinoline-2-carboxamide] | 1.12
CN1CCN(C(=O)c2ccc3cc(Oc4ccc(C(F)F)cn4)ccc3n2)CC1=O [Example 464, 4-[(6-{[5-(difluoromethyl)pyridin-2-yl]oxy}quinolin-2-yl)carbonyl]-1-methylpiperazin-2-one] | > 20
CN(C)C(=O)[C@@H]1CCCN1C(=O)c1ccc2cc(Oc3ccc(C(F)F)cn3)ccc2n1 [Example 465, 1-[(6-{[5-(difluoromethyl)pyridin-2-yl]oxy}quinolin-2-yl)carbonyl]-N,N-dimethyl-L-prolinamide] | > 20
CN(CC(=O)NC1CC1)C(=O)c1ccc2cc(Oc3ccc(C(F)F)cn3)ccc2n1 [Example 466, N-[2-(cyclopropylamino)-2-oxoethyl]-6-{[5-(difluoromethyl)pyridin-2-yl]oxy}-N-methylquinoline-2-carboxamide] | 9.41

Same assay, conditions: read-out: FRET-Membrane Potential Nav1.7 IC50

Structure (SMILES) | IC50 [µM]
O=C(c1ccc2cc(Oc3ccc(C(F)F)cn3)ccc2n1)N1CC(N2CCOCC2)C1 [Example 429, (6-{[5-(difluoromethyl)pyridin-2-yl]oxy}quinolin-2-yl) [3-(morpholin-4-yl)azetidin-1-yl]methanone] | 13.8
O=C(c1ccc2cc(Oc3ccc(C(F)F)cn3)ccc2n1)N1CCNCC1C(F)F (stereo not drawn) [Example 430, [2-(difluoromethyl)piperazin-1-yl](6-{[5-(difluoromethyl)pyridin-2-yl]oxy}quinolin-2-yl)methanone] | 3.45
O=C(c1ccc2cc(Oc3ccc(C(F)F)cn3)ccc2n1)N1CCC(N2CCOCC2)CC1 [Example 435, (6-{[5-(difluoromethyl)pyridin-2-yl]oxy}quinolin-2-yl)[4-(morpholin-4-yl)piperidin-1-yl]methanone] | 12.6
CC(=O)N[C@@H]1CCN(C(=O)c2ccc3cc(Oc4ccc(C(F)(F)F)cn4)ccc3n2)C1 [Example 438, N-{(3R)-1-[(6-{[5-(trifluoromethyl)pyridin-2-yl]oxy}quinolin-2-yl)carbonyl]pyrrolidin-3-yl}acetamide] | 12.5
CCN(CC)C(=O)CNC(=O)c1ccc2cc(Oc3ccc(C(F)(F)F)cn3)ccc2n1 [Example 446, N-[2-(diethylamino)-2-oxoethyl]-6-{[5-(trifluoromethyl)pyridin-2-yl]oxy}quinoline-2-carboxamide] | 0.166
O=C(NCCC(=O)N1CCCCC1)c1ccc2cc(Oc3ccc(C(F)(F)F)cn3)ccc2n1 [Example 449, N-[3-oxo-3-(piperidin-1-yl)propyl]-6-{[5-(trifluoromethyl)pyridin-2-yl]oxy}quinoline-2-carboxamide] | 0.789
CNC(=O)[C@@H]1CCCN1C(=O)c1ccc2cc(Oc3ccc(C(F)F)cn3)ccc2n1 [Example 455, 1-[(6-{[5-(difluoromethyl)pyridin-2-yl]oxy}quinolin-2-yl)carbonyl]-N-methyl-L-prolinamide] | > 20
CN1CC(NC(=O)c2ccc3cc(Oc4ccc(C(F)F)cn4)ccc3n2)CC1=O (stereo not drawn) [Example 462, 6-{[5-(difluoromethyl)pyridin-2-yl]oxy}-N-(1-methyl-5-oxopyrrolidin-3-yl)quinoline-2-carboxamide] | 0.947
